Laboratory results from the supplement of paper PMC8612539.
Values after ≈ are worked out from the molar mass of the structure shown.

Tested on: Escherichia coli
Experiment: minimum inhibitory concentration (MIC)
Procedure: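 Broth microdilution MIC (Sensititre BOPO7F bovine plate, CLSI methods) of 19 antimicrobials against field isolates of P. multocida, M. haemolytica, H. somni (deep nasopharyngeal swabs) and E. coli, Enterococcus spp. (rectal swabs) from weaned dairy heifers. Incubation 16-24 h at 35 C. MIC is the lowest concentration preventing visible growth. Values with <= or > lie at the tested range limits. Trimethoprim-sulfamethoxazole is given as the trimethoprim component of a 1:19 mixture.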

CCCN1C[C@H](C)[C@@H](O)[C@](C)(O)[C@@H](CC)OC(=O)[C@H](C)[C@@H](O[C@H]2C[C@@](C)(OC)[C@@H](O)[C@H](C)O2)[C@H](C)[C@@H](O[C@@H]2O[C@H](C)C[C@H](N(C)C)[C@H]2O)[C@](C)(O)C[C@H]1C [Gamithromycin]
Details	minimum inhibitory concentration [µg/mL]
isolate (source animal id): 8	8 (≈ 10.3 µM)
isolate (source animal id): 9	> 8
isolate (source animal id): 10	8 (≈ 10.3 µM)
isolate (source animal id): 11	8 (≈ 10.3 µM)
isolate (source animal id): 12	8 (≈ 10.3 µM)
isolate (source animal id): 13	8 (≈ 10.3 µM)
isolate (source animal id): 14	> 8
isolate (source animal id): 15	4 (≈ 5.15 µM)
isolate (source animal id): 16	8 (≈ 10.3 µM)
isolate (source animal id): 98	8 (≈ 10.3 µM)
isolate (source animal id): 99	8 (≈ 10.3 µM)
isolate (source animal id): 100	4 (≈ 5.15 µM)
isolate (source animal id): 101	8 (≈ 10.3 µM)
isolate (source animal id): 102	8 (≈ 10.3 µM)
isolate (source animal id): 103	8 (≈ 10.3 µM)
isolate (source animal id): 104	8 (≈ 10.3 µM)
isolate (source animal id): 105	8 (≈ 10.3 µM)
isolate (source animal id): 106	> 8
isolate (source animal id): 107	8 (≈ 10.3 µM)
isolate (source animal id): 108	8 (≈ 10.3 µM)
isolate (source animal id): 109	8 (≈ 10.3 µM)
isolate (source animal id): 110	4 (≈ 5.15 µM)
isolate (source animal id): 111	4 (≈ 5.15 µM)
isolate (source animal id): 112	8 (≈ 10.3 µM)
isolate (source animal id): 113	4 (≈ 5.15 µM)
isolate (source animal id): 114	8 (≈ 10.3 µM)
isolate (source animal id): 115	> 8
isolate (source animal id): 116	4 (≈ 5.15 µM)
isolate (source animal id): 117	> 8
isolate (source animal id): 118	8 (≈ 10.3 µM)
isolate (source animal id): 119	> 8
isolate (source animal id): 120	> 8
isolate (source animal id): 121	8 (≈ 10.3 µM)
isolate (source animal id): 122	8 (≈ 10.3 µM)
isolate (source animal id): 123	8 (≈ 10.3 µM)
isolate (source animal id): 124	> 8
isolate (source animal id): 125	≤ 1
isolate (source animal id): 126	> 8
isolate (source animal id): 127	8 (≈ 10.3 µM)
isolate (source animal id): 128	4 (≈ 5.15 µM)
isolate (source animal id): 129	4 (≈ 5.15 µM)
isolate (source animal id): 130	4 (≈ 5.15 µM)
isolate (source animal id): 131	4 (≈ 5.15 µM)
isolate (source animal id): 132	8 (≈ 10.3 µM)
isolate (source animal id): 133	8 (≈ 10.3 µM)
isolate (source animal id): 134	8 (≈ 10.3 µM)
isolate (source animal id): 135	8 (≈ 10.3 µM)
isolate (source animal id): 136	8 (≈ 10.3 µM)
isolate (source animal id): 137	8 (≈ 10.3 µM)
isolate (source animal id): 138	> 8
isolate (source animal id): 139	> 8
isolate (source animal id): 140	8 (≈ 10.3 µM)
isolate (source animal id): 141	> 8
isolate (source animal id): 142	8 (≈ 10.3 µM)
isolate (source animal id): 143	> 8
isolate (source animal id): 144	> 8
isolate (source animal id): 145	> 8
isolate (source animal id): 146	8 (≈ 10.3 µM)
isolate (source animal id): 147	> 8
isolate (source animal id): 148	8 (≈ 10.3 µM)
isolate (source animal id): 149	8 (≈ 10.3 µM)
isolate (source animal id): 150	> 8
isolate (source animal id): 151	8 (≈ 10.3 µM)
isolate (source animal id): 152	4 (≈ 5.15 µM)
isolate (source animal id): 153	8 (≈ 10.3 µM)
isolate (source animal id): 154	8 (≈ 10.3 µM)
isolate (source animal id): 155	4 (≈ 5.15 µM)
isolate (source animal id): 156	> 8
isolate (source animal id): 157	8 (≈ 10.3 µM)
isolate (source animal id): 158	8 (≈ 10.3 µM)
isolate (source animal id): 159	4 (≈ 5.15 µM)
isolate (source animal id): 160	> 8
isolate (source animal id): 161	> 8
isolate (source animal id): 162	8 (≈ 10.3 µM)
isolate (source animal id): 163	8 (≈ 10.3 µM)
isolate (source animal id): 164	8 (≈ 10.3 µM)
isolate (source animal id): 165	8 (≈ 10.3 µM)
isolate (source animal id): 166	4 (≈ 5.15 µM)
isolate (source animal id): 167	8 (≈ 10.3 µM)
isolate (source animal id): 168	8 (≈ 10.3 µM)
isolate (source animal id): 169	8 (≈ 10.3 µM)
isolate (source animal id): 170	8 (≈ 10.3 µM)
isolate (source animal id): 171	8 (≈ 10.3 µM)
isolate (source animal id): 172	8 (≈ 10.3 µM)
isolate (source animal id): 173	4 (≈ 5.15 µM)
isolate (source animal id): 174	8 (≈ 10.3 µM)
isolate (source animal id): 175	8 (≈ 10.3 µM)
isolate (source animal id): 176	8 (≈ 10.3 µM)
isolate (source animal id): 177	8 (≈ 10.3 µM)
isolate (source animal id): 178	8 (≈ 10.3 µM)
isolate (source animal id): 179	8 (≈ 10.3 µM)
isolate (source animal id): 180	8 (≈ 10.3 µM)
isolate (source animal id): 181	> 8
isolate (source animal id): 182	8 (≈ 10.3 µM)
isolate (source animal id): 183	8 (≈ 10.3 µM)
isolate (source animal id): 184	8 (≈ 10.3 µM)
isolate (source animal id): 185	8 (≈ 10.3 µM)
isolate (source animal id): 186	8 (≈ 10.3 µM)
isolate (source animal id): 187	4 (≈ 5.15 µM)
isolate (source animal id): 188	2 (≈ 2.57 µM)
